pIC50: −log10 of the molar value.
target: T1, recombinant CREBBP bromodomain (Homo sapiens, UniProt Q92793); assay: CBP TR-FRET displacement assay; assay type: binding; conditions: compound at 10 μM
T1 construct: recombinant CREBBP bromodomain obtained from BPS Bioscience, USA; purchased BPS Bioscience, USA
Procedure: The potency of compounds to inhibit CREBBP enzyme was tested in a TR-FRET displacement assay using recombinant CREBBP bromodomain obtained from BPS Bioscience, USA. The assay buffer was 50 mM HEPES (pH 7.5), 50 mM NaCl, 0.008% Brij 35, 0.01% BSA, 1 mM TCEP. 50 nM of CREBBP & 500 nM of Biotinylated ligand was incubated at room temperature for 30 minutes, the reaction was initiated by adding pre-incubated enzyme ligand mixture to the test compounds. After 60 min incubation, the reaction was stopped by the addition of stop mix containing 1 nM of LANCE Europium-anti-6xHis antibody (Perkin Elmer, USA) and 40 nM of Sure Light Allophycocyanin-Streptavidin (Perkin Elmer, USA). Fluorescence emission of the samples at 665 and 615 nm were measured at an excitation of 340 nm and their ratio was plotted against the compound concentrations to generate dose-response curve. The percent inhibition of the test compounds is calculated using the ratio of enzyme activity controls.
elected compounds of the present invention were screened in the above-mentioned assay procedures and IC50 values were determined by fitting the dose-response data to sigmoidal curve fitting equation using Graph pad prism software V7.

T1 sequence (Q92793 1085-1192 limits assumed): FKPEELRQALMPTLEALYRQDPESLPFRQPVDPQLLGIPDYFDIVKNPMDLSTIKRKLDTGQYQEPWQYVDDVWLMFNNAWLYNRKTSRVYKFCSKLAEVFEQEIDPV

In order of rising inhibition at 10 µM:
1. Cc1cc2c(N3CCN(C4CCOCC4)c4ccccc43)cccc2n(C)c1=O [Example 78, 1,3-Dimethyl-5-(4-(tetrahydro-2H-pyran-4-yl)-3,4-dihydroquinoxalin-1(2H)-yl)quinolin-2(1H)-one]  25%
2. COc1cc(N2CCN(C)c3ccc(S(C)(=N)=O)cc32)c2cc(C)c(=O)n(C)c2c1 (stereo not shown) [Example 101]  27%
3. COc1cc(N2CCN(C)c3cc(N4CCCCC4=O)ncc32)c2cc(C)c(=O)n(C)c2c1 [Example 126]  46%
4. CCc1cc2c(N3CCN(C)c4cc(-c5cnn(C)c5)c(C#N)cc43)cccc2[nH]c1=O [Example 50]  90%
5. Cc1cc2c(N3CCN(C)c4cc(-c5cnn(C)c5)c(CO)cc43)cccc2[nH]c1=O [Example 58, 5-(7-(Hydroxymethyl)-4-methyl-6-(1-methyl-1H-pyrazol-4-yl)-3,4-dihydroquinoxalin-1(2H)-yl)-3-methylquinolin-2(1H)-one]  91%

same assay, conditions: compound at 10 μM, 10 µM

In the case of `Cc1cc2c(N3CCN(C)c4cc(-c5cnn(C)c5)c(C#N)cc43)cc(OCC3CCCN(C)C3)cc2n(C)c1=O` (single isomer, unassigned) [Example 248, 4-(1,3-Dimethyl-7-((1-methylpiperidin-3-yl)methoxy)-2-oxo-1,2-dihydroquinolin-5-yl)-1-methyl-7-(1-methyl-1H-pyrazol-4-yl)-1,2,3,4-tetrahydroquinoxaline-6-carbonitrile], the “% Inhibition (10 μM)” value was 100%.

same assay, conditions: dose-response, read-out: IC50 (group A, B, C)

`COc1cc(N2CCN(C)c3ccc([S+](C)[O-])cc32)c2cc(C)c(=O)n(C)c2c1` (single isomer, unassigned) [Example 250] and `CNC(=O)c1ccc2c(c1)N(c1cc(OC)cc3c1cc(C)c(=O)n3C)CCN2C` [Example 81] cannot be ordered by pIC50: < 8.00 for the first, < 8.00 for the second.

First: COc1cc(N2CCN(C)c3cc(-c4ccncc4)c(C#N)cc32)c2cc(C)c(=O)n(C)c2c1 [Example 21]
Second: COc1cc(N2CCN(C(C)=O)c3cc(-c4cnn(C)c4)c(C#N)cc32)c2cc(C)c(=O)n(C)c2c1 [Example 63, 1-acetyl-4-(7-methoxy-1,3-dimethyl-2-oxo-1,2-dihydroquinolin-5-yl)-7-(1-methyl-1H-pyrazol-4-yl)-1,2,3,4-tetrahydroquinoxaline-6-carbonitrile]
The pIC50 of the first is higher: > 7.30 for the first, 7.00 to 7.29 for the second.

`COc1cc(N2CCN(C)c3cc(N4CCC(N(C)C)CC4)c(C#N)cc32)c2cc(C)c(=O)n(C)c2c1` [Example 22] and `COc1cc(N2CCN(C)c3cc(N4CCC(NC(C)=O)CC4)c(C#N)cc32)c2cc(C)c(=O)n(C)c2c1` [Example 56] cannot be ordered by pIC50: > 7.30 for the first, > 7.30 for the second.

`COc1cc(N2CCN(C)c3cc(N4CC(C)NC(C)C4)c(C#N)cc32)c2cc(C)c(=O)n(C)c2c1` (stereo not shown) [Example 24] and `CNC(=O)N1CCN(c2cc3c(cc2C#N)N(c2cc(OC)cc4c2cc(C)c(=O)n4C)CCN3C)CC1` [Example 28] cannot be ordered by pIC50: < 8.00 for the first, > 7.30 for the second.

`COc1cc(N2CCN(C)c3cc(-c4cnn(C)c4)c(F)cc32)c2cc(C)c(=O)n(C)c2c1` [Example 30] and `Cc1cc2c(N3CCN(C)c4cc(-c5cnn(C)c5)c(F)cc43)cc(N(C)C)cc2n(C)c1=O` [Example 45] cannot be ordered by pIC50: > 7.30 for the first, > 7.30 for the second.

`CCN1CCN(c2cc(OC)cc3c2cc(C)c(=O)n3C)c2cc(C#N)c(N3CCN(C(C)=O)CC3)cc21` [Example 32] and `COc1cc(N2CCN(C)c3cc(N4CCC(C(=O)NCCO)CC4)c(C#N)cc32)c2cc(C)c(=O)n(C)c2c1` [Example 59, 1-(7-Cyano-1-(7-methoxy-1,3-dimethyl-2-oxo-1,2-dihydroquinolin-5-yl)-4-methyl-1,2,3,4-tetrahydroquinoxalin-6-yl)-N-(2-hydroxyethyl)piperidine-4-carboxamide] cannot be ordered by pIC50: > 7.30 for the first, > 7.30 for the second.

`COC(=O)c1cc2c(cc1-c1cnn(C)c1)N(C)CCN2c1cc(OC)cc2c1cc(C)c(=O)n2C` [Example 34] and `COc1cc(N2CCN(C)c3cc(-c4cnn(C)c4)c(S(N)(=O)=O)cc32)c2cc(C)c(=O)n(C)c2c1` [Example 90] cannot be ordered by pIC50: > 7.30 for the first, > 7.30 for the second.

`Cc1cc2c(N3CCN(C)c4cc(-c5cnn(C)c5)c(C#N)cc43)cc(OCc3ncco3)cc2n(C)c1=O` [Example 41] and `Cc1cc2c(N3CCN(C)c4cc(-c5cnn(C)c5)c(C#N)cc43)cncc2n(C)c1=O` [Example 53] cannot be ordered by pIC50: > 7.30 for the first, > 7.30 for the second.

`Cc1cc2c(N3CCN(C)c4cc(C5=CCN(C)CC5)ccc43)cccc2n(C)c1=O` [Example 44] and `CNC(=O)N1CCN(c2cccc3c2cc(C)c(=O)n3C)c2ccc(-c3cnn(C)c3)cc21` [Example 75, 4-(1,3-Dimethyl-2-oxo-1,2-dihydroquinolin-5-yl)-N-methyl-7-(1-methyl-1H-pyrazol-4-yl)-3,4-dihydroquinoxaline-1(2H)-carboxamide] cannot be ordered by pIC50: < 8.00 for the first, < 8.00 for the second.

`Cc1cc2c(N3CCN(C)c4cc(-c5cnn(C)c5)c(C#N)cc43)cc(N3CCOCC3)cc2n(C)c1=O` [Example 47] and `Cc1cc2c(N3CCN(C)c4nc(-c5cnn(C)c5)ncc43)cc(N3CCOCC3)cc2n(C)c1=O` [Example 76, 1,3-Dimethyl-5-(8-methyl-2-(1-methyl-1H-pyrazol-4-yl)-7,8-dihydropteridin-5(6H)-yl)-7-morpholinoquinolin-2(1H)-one] cannot be ordered by pIC50: > 7.30 for the first, > 7.30 for the second.

First: CNC(=O)C1CCN(c2cc3c(cc2F)N(c2cc(N4CCOCC4)cc4c2cc(C)c(=O)n4C)CCN3C)CC1 [Example 49]
Second: Cc1cc2c(N3CCN(C)c4cc(S(=O)(=O)C(C)C)ncc43)cc(N3CCOCC3)cc2n(C)c1=O [Example 141]
The pIC50 of the first is higher: > 7.30 for the first, 7.00 to 7.29 for the second. The first is the more potent here.

`COc1cc(N2CC(=O)Nc3cc(-c4cnn(C)c4)c(F)cc32)c2cc(C)c(=O)n(C)c2c1` [Example 55] and `COc1cc(N2CC(=O)N(C)c3ccc(S(N)(=O)=O)cc32)c2cc(C)c(=O)n(C)c2c1` [Example 89] cannot be ordered by pIC50: 7.00 to 7.29 for the first, < 8.00 for the second.

First: Cc1cc2c(N3CCN(C)c4cc(-c5cnn(C)c5)c(CO)cc43)cccc2[nH]c1=O [Example 58, 5-(7-(Hydroxymethyl)-4-methyl-6-(1-methyl-1H-pyrazol-4-yl)-3,4-dihydroquinoxalin-1(2H)-yl)-3-methylquinolin-2(1H)-one]
Second: Cc1cc2c(N3CCN(C)c4ccc(C#N)cc43)cccc2[nH]c1=O [Example 115, 1-Methyl-4-(3-methyl-2-oxo-1,2-dihydroquinolin-5-yl)-1,2,3,4-tetrahydroquinoxaline-6-carbonitrile]
The pIC50 of the first is lower: 7.00 to 7.29 for the first, > 7.30 for the second. The second is the more potent here.

Compared with `CC(=O)N1CCN(CCOc2cc(N3CCN(C)c4cc(-c5cnn(C)c5)c(C#N)cc43)c3cc(C)c(=O)n(C)c3c2)CC1` [Example 61, 4-(7-(2-(4-Acetylpiperazin-1-yl)ethoxy)-1,3-dimethyl-2-oxo-1,2-dihydroquinolin-5-yl)-1-methyl-7-(1-methyl-1H-pyrazol-4-yl)-1,2,3,4-tetrahydroquinoxaline-6-carbonitrile], `Cc1cc2c(N3CCN(C)c4cc(-c5cnn(C)c5)ncc43)cc(OCCN3CCOCC3)cc2n(C)c1=O` [Example 128] is lower in pIC50: > 7.30 for the first, 7.00 to 7.29 for the second. The first is the more potent here.

`CCS(=O)(=O)N1CCN(c2cccc3c2cc(C)c(=O)n3C)c2ccc(-c3cnn(C)c3)cc21` [Example 74, 5-(4-(Ethylsulfonyl)-6-(1-methyl-1H-pyrazol-4-yl)-3,4-dihydroquinoxalin-1(2H)-yl)-1,3-dimethylquinolin-2(1H)-one] and `COc1cc(N2CCN(C)c3cc(S(N)(=O)=O)ccc32)c2cc(C)c(=O)n(C)c2c1` [Example 114, 1-(7-Methoxy-1,3-dimethyl-2-oxo-1,2-dihydroquinolin-5-yl)-4-methyl-1,2,3,4-tetrahydroquinoxaline-6-sulfonamide] cannot be ordered by pIC50: < 8.00 for the first, < 8.00 for the second.

Compared with `COc1cc(N2CCN(C)c3ccc(-c4nn[nH]n4)cc32)c2cc(C)c(=O)n(C)c2c1` [Example 84, 7-Methoxy-1,3-dimethyl-5-(4-methyl-7-(2H-tetrazol-5-yl)-3,4-dihydroquinoxalin-1(2H)-yl)quinolin-2(1H)-one], `COc1cc(N2CCN(C)c3ccc([S+](C)[O-])cc32)c2cc(C)c(=O)n(C)c2c1` (stereo not shown) [Example 99] is lower in pIC50: > 7.30 for the first, 7.00 to 7.29 for the second.

`COc1cc(N2CCN(C)c3ccc(S(=O)(=O)N(C)C)cc32)c2cc(C)c(=O)n(C)c2c1` [Example 93, 4-(7-Methoxy-1,3-dimethyl-2-oxo-1,2-dihydroquinolin-5-yl)-N,N,1-trimethyl-1,2,3,4-tetrahydroquinoxaline-6-sulfonamide] and `COc1cc(N2CCN(C)c3ccc(S(=O)(=O)NC(=O)C(C)(C)C)cc32)c2cc(C)c(=O)n(C)c2c1` [Example 111] cannot be ordered by pIC50: 7.00 to 7.29 for the first, < 8.00 for the second.

`Cc1cc2c(N3CCN(C)c4ccc(S(N)(=O)=O)cc43)cc(OC(F)F)cc2n(C)c1=O` [Example 97] and `COc1cc(N2CCN(C)c3cc(C(F)(F)F)ncc32)c2cc(C)c(=O)n(C)c2c1` [Example 124] cannot be ordered by pIC50: < 8.00 for the first, 7.00 to 7.29 for the second.

`CC(=O)NS(=O)(=O)c1ccc2c(c1)N(c1cc(N3CC[C@@H](O)C3)cc3c1cc(C)c(=O)n3C)CCN2C` [Example 105] and `COc1cc(N2CCN(C)c3cc(C4CC4)c(S(=O)(=O)NC(C)=O)cc32)c2cc(C)c(=O)n(C)c2c1` [Example 109] cannot be ordered by pIC50: > 7.30 for the first, > 7.30 for the second.

`COc1cc(N2CCN(C)c3cc(C4=CCCC4)c(S(=O)(=O)NC(C)=O)cc32)c2cc(C)c(=O)n(C)c2c1` [Example 110] and `Cc1cc2c(N3CCN(C)c4cc(-c5cnn(C)c5)ncc43)cc(C3CCOC3)cc2n(C)c1=O` (stereo not shown) [Example 142] cannot be ordered by pIC50: > 7.30 for the first, > 7.30 for the second.

Compared with `Cc1cc2c(N3CCN(C)c4cc(-c5ccsc5)ncc43)cc(N3CCOCC3)cc2n(C)c1=O` [Example 140], `Cc1cc2c(N3CC(C)N(C)c4cc(-c5cnn(C)c5)ncc43)cc(N3CCOCC3)cc2n(C)c1=O` (stereo not shown) [Example 144] is lower in pIC50: > 7.30 for the first, 7.00 to 7.29 for the second. The first is the more potent here.

`Cc1cc2c(N3CCN(C)c4cc(-c5cnn(C)c5)ncc43)cc(C3CCOCC3)cc2n(C)c1=O` [Example 143] gave a pIC50 of 7.00 to 7.29.

Reference: patent US20230322724A1, “HETEROCYCLIC COMPOUNDS AS CBP/EP300 BROMODOMAIN INHIBITORS” (AURIGENE ONCOLOGY LIMITED, priority 2020, published 2023)
